This is an account of results in patent US12492193B2, “Pyrazole derivatives for the treatment of cystic fibrosis” (Fondazione Istituto Italiano Di Tecnologia, priority 2017, dated 2025).

For orientation: EC50 means the midpoint of the concentration-response curve.

Chain of F508del-CFTR (P13569 with tags, fused parts or gaps DEL508-508): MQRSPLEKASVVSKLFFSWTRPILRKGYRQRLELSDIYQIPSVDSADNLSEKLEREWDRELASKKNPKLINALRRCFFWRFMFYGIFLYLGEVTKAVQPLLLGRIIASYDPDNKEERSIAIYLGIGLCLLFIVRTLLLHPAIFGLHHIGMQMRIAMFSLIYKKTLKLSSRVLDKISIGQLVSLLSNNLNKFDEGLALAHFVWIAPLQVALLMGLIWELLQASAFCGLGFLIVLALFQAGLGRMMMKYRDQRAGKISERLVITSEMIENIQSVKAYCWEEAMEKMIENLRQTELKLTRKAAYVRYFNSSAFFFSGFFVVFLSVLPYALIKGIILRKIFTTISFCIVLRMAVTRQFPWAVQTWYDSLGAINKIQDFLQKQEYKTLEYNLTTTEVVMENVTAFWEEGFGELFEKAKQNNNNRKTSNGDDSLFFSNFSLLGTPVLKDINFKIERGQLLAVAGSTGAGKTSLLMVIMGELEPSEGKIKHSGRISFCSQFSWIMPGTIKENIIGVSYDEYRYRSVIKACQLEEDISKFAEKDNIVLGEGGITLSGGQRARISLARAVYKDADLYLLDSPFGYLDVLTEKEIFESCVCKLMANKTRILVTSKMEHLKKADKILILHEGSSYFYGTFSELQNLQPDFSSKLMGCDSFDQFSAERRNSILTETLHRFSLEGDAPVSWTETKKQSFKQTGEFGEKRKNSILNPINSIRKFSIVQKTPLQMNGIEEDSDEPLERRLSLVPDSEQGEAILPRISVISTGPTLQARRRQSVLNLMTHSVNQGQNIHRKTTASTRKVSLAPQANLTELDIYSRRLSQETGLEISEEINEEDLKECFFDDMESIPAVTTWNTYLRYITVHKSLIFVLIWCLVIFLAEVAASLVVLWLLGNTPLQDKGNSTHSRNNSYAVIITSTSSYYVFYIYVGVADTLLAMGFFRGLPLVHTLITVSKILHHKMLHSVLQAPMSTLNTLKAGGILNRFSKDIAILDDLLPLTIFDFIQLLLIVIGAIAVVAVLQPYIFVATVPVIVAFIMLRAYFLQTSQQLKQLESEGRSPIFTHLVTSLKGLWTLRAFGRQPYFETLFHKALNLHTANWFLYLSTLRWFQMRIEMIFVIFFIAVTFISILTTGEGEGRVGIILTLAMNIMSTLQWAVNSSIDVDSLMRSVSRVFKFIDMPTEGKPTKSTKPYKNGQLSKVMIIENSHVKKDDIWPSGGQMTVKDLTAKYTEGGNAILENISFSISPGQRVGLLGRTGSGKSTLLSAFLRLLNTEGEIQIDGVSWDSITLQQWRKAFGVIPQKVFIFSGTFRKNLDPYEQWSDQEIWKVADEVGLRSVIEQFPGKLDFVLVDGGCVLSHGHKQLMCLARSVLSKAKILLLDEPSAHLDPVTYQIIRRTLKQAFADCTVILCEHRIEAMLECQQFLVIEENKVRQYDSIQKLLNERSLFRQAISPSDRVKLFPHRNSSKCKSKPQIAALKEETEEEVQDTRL

In the first assay the target is F508del-CFTR (Homo sapiens, UniProt P13569, DEL508-508). Nature of the assay: Short-circuit current recordings on human bronchial epithelial cells (F508del/F508del). The class given is cell-based. Details: Human bronchial epithelial (HBE) cells obtained from CF patients (F508del/F508del genotype); endogenous in cells; host or cells: primary human bronchial epithelial cells from CF patients, F508del/F508del. To be noted: HBE cells from CF patients (F508del/F508del), 24 hrs treatment; table 3. The protocol:
Short-Circuit Current Recordings on Human Bronchial Epithelial Cells
Human bronchial epithelial (HBE) cells obtained from CF patients (F508del/F508del genotype) were plated on Snapwell inserts (Code 3801, Corning Life Sciences) at a density of 500,000 cells per insert. Cells were cultured for two weeks in a differentiating medium whose compositions has been previously described (Scudieri et al., J Physiol 590:6141-6155, 2012). For the first week, the medium was kept on both apical and basolateral sides of inserts (submerged condition). For the second week, the apical medium was removed (air-liquid condition, ALC). To test the activity of correctors, cells were treated for 24 hrs with compounds dissolved in the basolateral medium. After treatment, Snapwell inserts carrying differentiated bronchial epithelia were mounted in a vertical chamber resembling an Ussing system with internal fluid circulation. Both apical and basolateral hemichambers were filled with 5 mL of a Krebs bicarbonate solution containing (in mM): 126 NaCl, 0.38 KH2PO4, 2.13 K2HPO4, 1 MgSO4, 1 CaCl2), 24 NaHCO3, and 10 glucose. Both sides were continuously bubbled with a gas mixture containing 5% CO2-95% air and the temperature of the solution was kept at 37° C. The transepithelial voltage was short-circuited with a voltage-clamp (DVC-1000, World Precision Instruments) connected to the apical and basolateral chambers via Ag/AgCl electrodes and agar bridges (1 M KCl in 1% agar). The offset between voltage electrodes and the fluid resistance were canceled before experiments. The short-circuit current was recorded with a PowerLab 4/25 (ADInstruments) analogical to digital converter connected to a Macintosh computer. […] The difference between the current measured with CPT-cAMP plus potentiator and the current remaining after CFTRinh-172 treatment (ΔICFTR) was taken as the parameter reflecting F508del-CFTR expression in the apical membrane.
Activities of selected compounds on HBE cells (expressed as ΔICFTR) are illustrated in table 3 wherein +: ΔICFTR<2.0 μA; ++: 2.0 μA<ΔICFTR<3.0 μA; +++: ΔICFTR>3.0 μA.
Consider `Cc1nn(-c2cccc(C(=O)N(C)c3ccc4c(c3)OCO4)c2)c(COc2ccc(C(=O)O)cc2)c1Cl` [compound 144, 4-[[2-[3-[1,3-Benzodioxol-5-yl(methyl)carbamoyl]phenyl]-4-chloro-5-methyl-pyrazol-3-yl]methoxy]benzoic acid], for which the “activity on HBE cells (ΔICFTR)” value was “++ (2.0 μA<ΔICFTR<3.0 μA)”.

For the next assay, the target named is T1, mutant CFTR (Homo sapiens, UniProt P13569, DEL508-508).
T1 construct: expressed in transfected cells
T1 sequence (P13569 with tags, fused parts or gaps DEL508-508): as above
As to the kind of experiment: Fluorescence (HS-YFP) assay for CFTR activity, corrector assay. As to conditions: CFBE41o- and FRT cells with stable expression of mutant CFTR, 24 h compound treatment. The class given is cell-based. The procedure, abridged: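 Corrector activity: 24 h compound treatment of HS-YFP/mutant-CFTR CFBE41o- or FRT cells, followed by 30 min forskolin 20 μM + genistein 50 μM at 37° C. Iodide influx (100 mM final) was tracked as fluorescence quenching, with dF/dt extrapolated by exponential fitting; EC50 values derived.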
`Cc1nn(-c2cccc(C(=O)N(C)c3ccc4c(c3)OCO4)c2)c(COc2ccc(C(=O)O)cc2)c1Cl` [compound 144, 4-[[2-[3-[1,3-Benzodioxol-5-yl(methyl)carbamoyl]phenyl]-4-chloro-5-methyl-pyrazol-3-yl]methoxy]benzoic acid]: the EC50 is below 1000 nM. The same measure, in the same setting: with `Cc1cn2cc(N(C)C(=O)c3cccc(-n4nc(C(F)(F)F)c(Cl)c4COc4ccc(C(=O)O)cc4)c3)ccc2n1` [compound 256, 4-[[4-Chloro-2-[3-[methyl-(2-methylimidazo[1,2-a]pyridin-6-yl)carbamoyl]phenyl]-5-(trifluoromethyl)pyrazol-3-yl]methoxy]benzoic acid] the figure was below 1000 nM. On the same count and under the same terms, then `CN(C(=O)c1cccc(-n2nc(C(F)(F)F)c(Cl)c2COC2CC(C(=O)O)C2)c1)c1ccc2c(c1)OC(F)(F)O2` (stereo not drawn) [compound 257, 3-[[4-Chloro-2-[3-[(2,2-difluoro-1,3-benzodioxol-5-yl)-methyl-carbamoyl]phenyl]-5-(trifluoromethyl)pyrazol-3-yl]methoxy]cyclobutanecarboxylic acid], with below 1000 nM; and `CN(C(=O)c1cccc(-n2nc(C(F)(F)F)c(Cl)c2OCC23CC(C(=O)O)(C2)C3)c1)c1ccc2c(c1)OC(F)(F)O2` [compound 258, 3-[[4-Chloro-2-[3-[(2,2-difluoro-1,3-benzodioxol-5-yl)-methyl-carbamoyl]phenyl]-5-(trifluoromethyl)pyrazol-3-yl]oxymethyl]bicyclo[1.1.1]pentane-1-carboxylic acid], with below 1000 nM.

Turning to `CN(C(=O)c1cccc(-n2nc(C(F)(F)F)c(C#N)c2COc2ccc(C(=O)OC(C)(C)C)cc2)c1)c1ccc2c(c1)OC(F)(F)O2` [compound 259, Tert-butyl 4-[[4-cyano-2-[3-[(2,2-difluoro-1,3-benzodioxol-5-yl)-methyl-carbamoyl]phenyl]-5-(trifluoromethyl)pyrazol-3-yl]methoxy]benzoate], the EC50 is below 1000 nM.

As for `CCOC(=O)CCC(=O)N1CCC(Oc2cc(C(F)(F)F)nn2-c2cccc(C(=O)N(C)c3ccc4c(c3)OC(F)(F)O4)c2)CC1` [compound 260, Ethyl 4-[4-[2-[3-[(2,2-difluoro-1,3-benzodioxol-5-yl)-methyl-carbamoyl]phenyl]-5-(trifluoromethyl)pyrazol-3-yl]oxy-1-piperidyl]-4-oxo-butanoate], the concentration giving a half-maximal response (EC50) is below 1000 nM. For `Cc1nc2ncc(N(C)C(=O)c3cccc(-n4nc(C(F)(F)F)c(Cl)c4C)c3)cc2o1` [compound 261, 3-[4-Chloro-5-methyl-3-(trifluoromethyl)pyrazol-1-yl]-N-methyl-N-(2-methyloxazolo[4,5-b]pyridin-6-yl)benzamide], the EC50 lay in the range of 1000 to 2000 nM.

As for `CN(C(=O)c1cccc(-n2nc(C(F)(F)F)cc2OCc2ccc(C(=O)O)cc2)c1)c1ccc2c(c1)OCC2` [compound 262, 4-[[2-[3-[2,3-Dihydrobenzofuran-6-yl(methyl)carbamoyl]phenyl]-5-(trifluoromethyl)pyrazol-3-yl]oxymethyl]benzoic acid], the EC50 was below 1000 nM. As for `Cc1noc2cc(N(C)C(=O)c3cccc(-n4nc(C(F)(F)F)cc4OCc4ccc(C(=O)O)cc4)c3)ccc12` [compound 263, 4-[[2-[3-[Methyl-(3-methyl-1,2-benzoxazol-6-yl)carbamoyl]phenyl]-5-(trifluoromethyl)pyrazol-3-yl]oxymethyl]benzoic acid], the EC50 was above 2000 nM. As for `CN(C(=O)c1cccc(-n2nc(C(F)(F)F)cc2OC2CCN(C(=O)CCC(=O)O)CC2)c1)c1ccc2c(c1)OC(F)(F)O2` [compound 264, 4-[4-[2-[3-[(2,2-Difluoro-1,3-benzodioxol-5-yl)-methyl-carbamoyl]phenyl]-5-(trifluoromethyl)pyrazol-3-yl]oxy-1-piperidyl]-4-oxo-butanoic acid], the EC50 was 1000 to 2000 nM.

`CN(C(=O)c1cccc(-n2nc(C(F)(F)F)cc2OCC2(C(=O)O)CC2)c1)c1ccc2c(c1)OC(F)(F)O2` [compound 265, 1-[[2-[3-[(2,2-Difluoro-1,3-benzodioxol-5-yl)-methyl-carbamoyl]phenyl]-5-(trifluoromethyl)pyrazol-3-yl]oxymethyl]cyclopropanecarboxylic acid]: the EC50 is above 2000 nM. On the same count and under the same terms, then `CN(C(=O)c1cccc(-n2nc(C(F)(F)F)c(Cl)c2COc2ccc(C(=O)O)cc2)c1)c1cnc2c(c1)OCO2` [compound 267, 4-[[4-Chloro-2-[3-[[1,3]dioxolo[4,5-b]pyridin-6-yl (methyl)carbamoyl]phenyl]-5-(trifluoromethyl)pyrazol-3-yl]methoxy]benzoic acid], with below 1000 nM; and `CN(C(=O)c1cccc(-n2nc(C(F)F)c(C#N)c2COc2ccc(C(=O)O)cc2)c1)c1ccc2c(c1)OC(F)(F)O2` [compound 268, 4-[[4-cyano-2-[3-[(2,2-difluoro-1,3-benzodioxol-5-yl)-methyl-carbamoyl]phenyl]-5-(difluoromethyl)pyrazol-3-yl]methoxy]benzoic acid], with below 1000 nM. The same measure, in the same setting: then `Cc1c(N(C)C(=O)c2cccc(-n3nc(C(F)(F)F)c(Cl)c3C)c2)ccc2c1OCO2` [compound 269, 3-[4-chloro-5-methyl-3-(trifluoromethyl)pyrazol-1-yl]-N-methyl-N-(4-methyl-1,3-benzodioxol-5-yl)benzamide], with above 2000 nM.
